In the supplement of paper PMC8671470:

What was measured:
Details in all cases: 72 h
[1] = tested on: BV-173
Summary of the method: (§1)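 Fifteen myeloid leukaemia lines in RPMI 1640 were treated for 72 h at 37 °C and 5% CO2 with five tenfold doses from 1 to 10,000 nM, in duplicate. ATP luminescence was normalised to vehicle and to a positive control at 10 µM, then fitted with a four-parameter log-logistic model. The IC50 came from these fits.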

[2] = tested on: HEL
Summary of the method: as §1

[3] = tested on: HL-60
Summary of the method: as §1

[4] = tested on: K-562
Summary of the method: as §1

[5] = tested on: KCL-22
Summary of the method: as §1

[6] = tested on: KG-1
Summary of the method: as §1

[7] = tested on: KU-812
Summary of the method: as §1

[8] = tested on: LAMA-84
Summary of the method: as §1

[9] = tested on: ML-2
Summary of the method: as §1

[10] = tested on: MOLM-13
Summary of the method: as §1

[11] = tested on: MV4-11
Summary of the method: as §1

[12] = tested on: Mono-Mac-6
Summary of the method: as §1

[13] = tested on: NOMO-1
Summary of the method: as §1

[14] = tested on: SHI-1
Summary of the method: as §1

[15] = tested on: THP-1
Summary of the method: as §1

[16] = tested on: BV-173; assay: cell viability (% survival relative to DMSO control, bortezomib = 0%); higher = less cytotoxic
Summary of the method: (§2)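 Reported values are percent survival from duplicate wells, averaged. Fifteen myeloid leukaemia cell lines were treated in 384-well plates with compounds at 1, 10, 100, 1000 or 10000 nM for 72 h at 37 °C in 5% CO2. Signals from CellTiter-Glo luminescence were scaled with vehicle as 100% and a 10 µM positive control as 0%.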

[17] = tested on: HEL; assay: as above
Summary of the method: as §2

[18] = tested on: HL-60; assay: as above
Summary of the method: as §2

[19] = tested on: K-562; assay: as above
Summary of the method: as §2

[20] = tested on: KCL-22; assay: as above
Summary of the method: as §2

[21] = tested on: KG-1; assay: as above
Summary of the method: as §2

[22] = tested on: KU-812; assay: as above
Summary of the method: as §2

[23] = tested on: LAMA-84; assay: as above
Summary of the method: as §2

[24] = tested on: ML-2; assay: as above
Summary of the method: as §2

[25] = tested on: MOLM-13; assay: as above
Summary of the method: as §2

[26] = tested on: MV4-11; assay: as above
Summary of the method: as §2

[27] = tested on: Mono-Mac-6; assay: as above
Summary of the method: as §2

[28] = tested on: NOMO-1; assay: as above
Summary of the method: as §2

[29] = tested on: SHI-1; assay: as above
Summary of the method: as §2

[30] = tested on: THP-1; assay: as above
Summary of the method: as §2

N#Cc1ccc(C2CCCc3cncn32)cc1 (stereo not given) [Fadrozole]
Details	IC50 (cell viability) [µM]
[1]	> 10
[2]	> 10
[3]	> 10
[4]	> 10
[5]	> 10
[6]	> 10
[7]	> 10
[8]	> 10
[9]	> 10
[10]	> 10
[11]	> 10
[12]	> 10
[13]	> 10
[14]	> 10
[15]	> 10

cell viability [%]
Details	1 nM	10 nM	100 nM	1000 nM	10000 nM
[16]	103	95.3	95	116	106
[17]	106	95.1	93.5	96.9	111
[18]	108	91.7	88	85.9	99.2
[19]	95.8	97.9	95.8	101	109
[20]	115	92.2	88.6	82.7	103
[21]	108	97.9	89.5	110	108
[22]	95.8	87.3	92.2	112	112
[23]	102	93.7	103	95.5	107
[24]	90.5	90.7	86.2	107	109
[25]	108	86.8	92.7	94.4	93.2
[26]	109	96.4	95.9	93.2	98.1
[27]	102	93.4	97.2	101	112
[28]	100	90.2	93.4	100	105
[29]	113	95.3	101	95.8	102
[30]	99.6	96.3	96.2	107	102

C=C1NC(=O)c2cc(CN(C)c3ccc(C(=O)N[C@@H](CCC(=O)O)C(=O)O)s3)ccc2N1 [Raltitrexed]
Details	IC50 (cell viability) [µM]
[1]	0.0524
[2]	0.0376
[3]	0.422
[4]	0.201
[5]	0.0698
[6]	> 10
[7]	0.056
[8]	0.0428
[9]	0.122
[10]	0.0479
[11]	0.0919
[12]	0.0452
[13]	0.0829
[14]	0.562
[15]	0.193

cell viability [%]
Details	1 nM	10 nM	100 nM	1000 nM	10000 nM
[16]	95.6	163	8.17	1.32	3.9
[17]	100	109	6.54	6.59	7.77
[18]	108	127	116	6.78	6.89
[19]	104	121	86.5	49.2	52.4
[20]	103	107	45.4	21.2	22
[21]	101	103	101	100	102
[22]	94.1	104	37.7	34.6	39.1
[23]	97.1	108	27.7	22.4	26.6
[24]	93.9	121	61.6	5.21	6.92
[25]	118	145	5.74	1.25	1.81
[26]	108	110	48.1	4.34	6.68
[27]	94.2	108	19.4	8.75	9.59
[28]	99.5	113	51.3	34.8	31.4
[29]	106	118	99.8	38.4	43.3
[30]	92.9	118	61.4	40.7	46.1

CC(C)c1ccc2c(c1)c(SC(C)(C)C)c(CC(C)(C)C(=O)O)n2Cc1ccc(Cl)cc1 [MK-886]
Details	IC50 (cell viability) [µM]
[1]	> 10
[2]	> 10
[3]	> 10
[4]	> 10
[5]	4.26
[6]	> 10
[7]	> 10
[8]	> 10
[9]	> 10
[10]	> 10
[11]	> 10
[12]	> 10
[13]	> 10
[14]	> 10
[15]	> 10

cell viability [%]
Details	1 nM	10 nM	100 nM	1000 nM	10000 nM
[16]	121	89.6	114	103	94.9
[17]	110	112	99.2	95.3	82.7
[18]	108	103	94.8	93.7	124
[19]	109	97	101	100	106
[20]	108	110	105	89.7	39.1
[21]	111	102	89.4	93.8	91.5
[22]	109	97.3	94.1	94.9	91.5
[23]	96.6	101	97.2	100	115
[24]	132	107	95.3	95.8	67.8
[25]	89	103	88.9	85.3	88.4
[26]	107	109	96.9	94.5	96.5
[27]	111	109	91.5	101	108
[28]	120	110	106	107	97.5
[29]	108	110	104	93.2	98.3
[30]	96.6	101	98.2	96.8	108
